The results in this text go back to ChEMBL document CHEMBL1201862, “PubChem BioAssay data set” (2004).

The GI50 is the concentration giving 50% growth inhibition.

Common to all, as to test: DTP human tumour cell line panel, 48 h
Test [1] relates to SF-539.
For test [2], the system named is SW-620.
The test system of test [3] is U-251.
Test [4] concerns MDA-N.
In test [5] the test system is CCRF-CEM.
Test [6] deals with NCI-H460.
In test [7] the test system is UACC-257.
The subject of test [8] is A498.
Test [9] deals with NCI-H23.
In test [10] the test system is MDA-MB-231.
For test [11], the system named is MDA-MB-435.
Test [12] concerns NCI-H522.
Test [13] deals with HOP-62.
Test [14] concerns OVCAR-5.
In test [15] the test system is T47D.
In test [16] the test system is Malme-3M.
The test system of test [17] is HT-29.
The test system of test [18] is K562.
Test [19] has as its system ACHN.
Test [20] relates to 786-0.

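48-hour exposure; five concentrations; linearly interpolated endpoints. GI50 is the concentration that inhibits growth by half.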 The source made the active and inactive calls. Rule as the data show it: active = GI50 up to about 1.1 µM and inactive = higher.

As to `COC(=O)c1ccc2c(c1)CC1(C2)Cc2ccccc2C1=O` (stereo not given), the GI50 in test [1] was 38.6 µM (inactive); in [2], 32.7 µM (inactive); in [3], 34.2 µM (inactive); in test [4], 27.7 µM (inactive); in [5] it was 19.9 µM (inactive); in test [6], > 100 µM (inactive). Moreover, the GI50 was 15.1 µM (inactive) in [7]; 37.6 µM (inactive) in [8]; 29.5 µM (inactive) in [9]; 22.7 µM (inactive) in [10]; 24.5 µM (inactive) in test [11]; 25.3 µM (inactive) in [12]. The GI50 in test [13] was 38.5 µM (inactive); in test [14], 72.3 µM (inactive); in test [15], 37.8 µM (inactive); in [16], 20.8 µM (inactive); in test [17], 17.5 µM (inactive); in test [18], 30.3 µM (inactive). Moreover, the GI50 in test [19] is 29.7 µM (inactive); in test [20], 40.2 µM (inactive).
`C[C@H](CCC(=O)O)[C@H]1CC[C@H]2[C@@H]3[C@@H](O)C[C@@H]4C[C@H](O)CC[C@]4(C)[C@H]3C[C@H](O)[C@]12C`: the GI50 in test [1], in test [2], in test [3], in test [4], in [5] and in [6] was > 100 µM (inactive) each time. Further, the GI50 in test [7], in test [8], in [9], in [10], in [11] and in [12] was > 100 µM (inactive) each time. The GI50 in [13], in [14], in test [15], in test [16], in test [17] and in test [18] was > 100 µM (inactive) throughout. In addition, the GI50 in [19] and in test [20] was > 100 µM (inactive) throughout.
Regarding `O=C1CC(O)c2cscc21` (stereo not given), the GI50 in test [1] is > 100 µM (inactive); in test [2], 37.8 µM (inactive); in test [3], > 100 µM (inactive); in test [4], > 100 µM (inactive); in [5], 21.6 µM (inactive); in test [6], > 100 µM (inactive). Besides, the GI50 in [7] was > 100 µM (inactive); in test [8], > 100 µM (inactive); in test [9], > 100 µM (inactive); in test [10] it was > 100 µM (inactive); in test [11] it was > 100 µM (inactive); in test [12] it was 41.3 µM (inactive). Also, the GI50 in test [13] is > 100 µM (inactive); in test [14], > 100 µM (inactive); in [15], > 100 µM (inactive); in [16] it was > 100 µM (inactive); in [17], > 100 µM (inactive); in test [18], 38.1 µM (inactive). The GI50 in test [19] and in test [20] was > 100 µM (inactive) in each case.
For the compound `C(=N/NC1=NCCN1)/c1c2ccccc2c(/C=N\NC2=NCCN2)c2ccccc12`, the GI50 in test [1] is 0.1 µM (active); in test [2] it was 0.113 µM (active); in test [3] it was 0.061 µM (active); in test [4] it was 0.113 µM (active); in [5], 0.0408 µM (active); in test [6], 0.0279 µM (active). The GI50 in [7] was 0.344 µM (active); in [8], 0.324 µM (active); in test [9] it was 0.129 µM (active); in [10], 6.56 µM (inactive); in test [11], 0.0376 µM (active); in [12], 0.0698 µM (active). The GI50 in test [13] was 0.0966 µM (active); in [14], 0.239 µM (active); in test [15] it was 0.11 µM (active); in test [16], 0.16 µM (active); in test [17], 0.0923 µM (active); in [18] it was 0.0664 µM (active). Besides, the GI50 in test [19] is 0.221 µM (active); in test [20], 0.0991 µM (active).
For the compound `C/C(=N/NC(=S)Nc1ccccc1C)c1ccccn1`, the 50% growth inhibitory concentration (GI50) in [1] was 1.01 µM (active); in test [2], < 0.0177 µM (active); in test [3], 0.0571 µM (active); in [4], 0.807 µM (active); in [5], 0.0206 µM (active); in test [6], 0.0818 µM (active). Further, the GI50 in [7] is < 0.0208 µM (active); in [8] it was 1.67 µM (inactive); in test [9], < 0.0189 µM (active); in [10] it was < 0.0216 µM (active); in test [11], 0.632 µM (active); in test [12], 0.583 µM (active). In addition, the GI50 in test [13] is 0.0299 µM (active); in test [14], 0.0843 µM (active); in [15], < 0.0475 µM (active); in [16], 1.6 µM (inactive); in test [17] it was 0.0726 µM (active); in [18], < 0.0145 µM (active). The 50% growth inhibitory concentration (GI50) was 0.0562 µM (active) in test [19] and 0.0627 µM (active) in test [20].
On to `CCCCCCCCCc1cc(O)c(O)cc1CCCCCCCCC`, for which the GI50 in test [1], in [2], in test [3], in test [4], in test [5] and in test [6] was > 10 µM (inactive) throughout. Besides, the GI50 in [7], in test [8], in [9], in [10], in [11] and in [12] was > 10 µM (inactive) each time. For the same compound, the GI50 in test [13], in [14], in test [15], in [16], in [17] and in [18] was > 10 µM (inactive) each time. Moreover, the GI50 in [19] and in [20] was > 10 µM (inactive) throughout.
Consider `[O-]/[N+](=C\c1ccccc1OC(=S)S)c1ccc(Cl)cc1`, for which the GI50 is 35.6 µM (inactive) in [1]; 11.2 µM (inactive) in [2]; 19.8 µM (inactive) in test [3]; 18 µM (inactive) in test [4]; 2.42 µM (inactive) in test [5]; 0.292 µM (active) in test [6]. In addition, the GI50 is 21.5 µM (inactive) in test [7]; 59.8 µM (inactive) in [8]; 23.8 µM (inactive) in test [9]; 13.7 µM (inactive) in test [10]; 15.7 µM (inactive) in test [11]; 16.8 µM (inactive) in test [12]. Also, the GI50 in [13] was 47.9 µM (inactive); in [14], 21.2 µM (inactive); in test [15], 6.01 µM (inactive); in test [16], > 100 µM (inactive); in test [17], 22.4 µM (inactive); in test [18], 10.6 µM (inactive). Moreover, the GI50 was 20.6 µM (inactive) in test [19] and 14.6 µM (inactive) in [20].
